Assay results from patent US10765639B2, “Nanocapsules, methods of manufacture and uses thereof” (ADISSEO FRANCE S.A.S., priority 2016, dated 2020).

Legend:
[1] = oral administration, native vitamin E; cited from earlier work
[2] = Bioavailability of TAC in vivo in roosters (plasma free tocopherol after force-feeding); parameters: species or system ISA Brown roosters; AUC 24 h (Room 1) / AUC 96 h (Room 1) / AUC 24 h (Room 2) / AUC 96 h (Room 2): concentration or dose not given beside the values; conditions: for AUC 24 h (Room 1) / AUC 96 h (Room 1): Room 1, force-feeding; for AUC 24 h (Room 2) / AUC 96 h (Room 2): Room 2, force-feeding
Description: The experimental scheme is described in detail in Preveraud et al. 2015, British Poultry Science, 56: 1; 94-102.
Briefly, two rooms with 60 ISA Brown roosters are placed in individual cages. One week before assigning the treatments, the roosters are fed with a feed devoid of vitamin E.
The roosters (n=10 roosters per treatment) were force-fed with different TAC solutions in water.
Room 1: Dry nanocapsules C24 of example 1, • TOL and TAC, in the form of oil, as a blank
Room 2: C40 dry nanocapsules of example 1, • TOL and TAC, in the form of oil, as a blank.
After the force-feeding administration of the vitamin E products put in a capsule, blood samples were taken at 0, 6, 12, 24, 48 and 96 h post force-feeding. After centrifugation, the plasma is decanted and the free tocopherol is measured up by HPLC.

tocopherol [TOL]
Bioavailability in animals when orally administered [1]: ≤ 50% | %/TAC 24 h (Room 1) ([2]; Room 1, 24 h, diffusion percentage relative to TAC): +49% | %/TAC 96 h (Room 1) ([2]; Room 1, 96 h, diffusion percentage relative to TAC): +100% | AUC 24 h (Room 1) [2]: 307 µg/mL/h | AUC 96 h (Room 1) [2]: 1193 µg/mL/h | %/TAC 24 h (Room 2) ([2]; Room 2, 24 h, diffusion percentage relative to TAC): +118% | %/TAC 96 h (Room 2) ([2]; Room 2, 96 h, diffusion percentage relative to TAC): +124% | AUC 24 h (Room 2) [2]: 309 µg/mL/h | AUC 96 h (Room 2) [2]: 320 µg/mL/h

CC(=O)Oc1c(C)c(C)c2c(c1C)CCC(C)(CCC[C@H](C)CCC[C@H](C)CCCC(C)C)O2 (stereo partly drawn) [TAC, alpha-tocopherol acetate]
AUC 24 h (Room 1) [2]: 206 µg/mL/h | AUC 96 h (Room 1) [2]: 597 µg/mL/h | AUC 24 h (Room 2) [2]: 142 µg/mL/h | AUC 96 h (Room 2) [2]: 340 µg/mL/h
